Columns and labels:
[1] = Solubility under the conditions of the platelet aggregation assay; type: physicochemical; conditions: antiplatelet assay
Procedure: Test compounds were dissolved in 99% DMSO (stock concentration 40 mM) and stored at –25 °C. If sediment or opalescence was detected, 5% Tween 20 (Merck) was added. Serial dilutions were prepared ex tempore in a media suitable for the particular study. Final concentration in samples: DMSO <0.25%, Tween 20 <0.025% (were added to control samples in equal concentrations).
Functional activity of platelets was determined on a two-channel laser analyzer of platelet aggregation "BIOLA-220 LA" (Russia) as described previously. The experiments were carried out on 6 male rabbits weighing 3.5–4 kg. To prepare platelet-rich plasma (PRP) venous blood was taken from the ear marginal vein of a rabbit, stabilized with a 3.8% sodium citrate solution in a ratio of 9:1 and centrifuged for 10 min at 1500 rpm. PRP (300 μL) and a solution of the test compound at a concentration of 100 μM were sequentially introduced into the cell of the aggregometer. The samples were incubated in thermostated cells of the aggregometer at 37 °C for 5 min. To induce aggregation adenosine-5-diphosphoric acid (ADP, Sigma, USA) at a final concentration of 5 μM, was added to the cuvette. Acetylsalicylic acid (Shandong Xinhua Pharmaceutical Co., Ltd., China) was used as a reference drug. Experiments were run in 5 independent replicates.

IL-6 secretion = assay: Interleukin-6 secretion (ELISA) from LPS-stimulated peritoneal macrophages; type: cell-based, mice; conditions: male, C57BL/6J, mouse, primary peritoneal macrophages stimulated with LPS; CC50 versus IC50 of IL-6 secretion; read-out: selectivity of IL-6 inhibition over cytotoxicity
Procedure: (§1) Peritoneal macrophages (PM) were isolated from the peritoneal exudate of 30 male C57bl/6j mice. To accumulate PM, 1 ml of 3% peptone solution was injected intraperitoneally. After 3 days the mice were euthanized by cervical dislocation. Cells of peritoneal exudate were obtained by aseptically washing the abdominal cavity with 5 ml of sterile Hanks’s solution (+ 4-6 °C) without calcium and magnesium ions. The total number and viability of cells were assessed in a Goryaev counting chamber (Russia) with a 0.4% trypan blue staining (Sigma-Aldrich, USA). The cell concentration was adjusted to 1.0×10^6 cells/ml in DMEM (Gibco) supplemented with 2 mM L-glutamine (Gibco), 10% heat-inactivated fetal bovine serum (BioClot, Germany), 100 U/ml penicillin and […] streptomycin (Gibco) and plated 200 μl/well in 96-well transparent plates (SPL Life Sciences Co., Ltd., Korea). It was left for 2 h at 37°C in a humidified atmosphere with 5% CO2, after which the wells were washed to remove non-adherent cells. After 24 hours of incubation, 20 μl of the supernatant was removed and 20 μl of solutions of test compounds were added 30 min before E. coli O127:B8 LPS (100 ng/ml final concentration). Experiments were run in 3 independent replicates.
(§2) Cell supernatant was collected and centrifuged at 1000 g for 20 min in a 2-16PK Sigma centrifuge (Germany). The concentration of IL-6 was determined by ELISA using a commercial kit (Cloud-clone ELISA kit) with a microplate reader Infinite M200 PRO (Tecan, Austria).

[2] = tested on: primary peritoneal macrophages of C57BL/6J mice; assay: as above; type: cell-based
Procedure: as §1, §2

NHE-1 = biological target: T1, NHE-1 (Oryctolagus cuniculus, UniProt P23791); assay: NHE-1 inhibition assay on rabbit platelets (platelet shape change after acidification with sodium propionate, laser aggregometer); type: cell-based
T1 construct: endogenous in cells; host or cells: rabbit platelets in platelet-rich plasma (male rabbits)
T1 sequence (P23791 whole entry): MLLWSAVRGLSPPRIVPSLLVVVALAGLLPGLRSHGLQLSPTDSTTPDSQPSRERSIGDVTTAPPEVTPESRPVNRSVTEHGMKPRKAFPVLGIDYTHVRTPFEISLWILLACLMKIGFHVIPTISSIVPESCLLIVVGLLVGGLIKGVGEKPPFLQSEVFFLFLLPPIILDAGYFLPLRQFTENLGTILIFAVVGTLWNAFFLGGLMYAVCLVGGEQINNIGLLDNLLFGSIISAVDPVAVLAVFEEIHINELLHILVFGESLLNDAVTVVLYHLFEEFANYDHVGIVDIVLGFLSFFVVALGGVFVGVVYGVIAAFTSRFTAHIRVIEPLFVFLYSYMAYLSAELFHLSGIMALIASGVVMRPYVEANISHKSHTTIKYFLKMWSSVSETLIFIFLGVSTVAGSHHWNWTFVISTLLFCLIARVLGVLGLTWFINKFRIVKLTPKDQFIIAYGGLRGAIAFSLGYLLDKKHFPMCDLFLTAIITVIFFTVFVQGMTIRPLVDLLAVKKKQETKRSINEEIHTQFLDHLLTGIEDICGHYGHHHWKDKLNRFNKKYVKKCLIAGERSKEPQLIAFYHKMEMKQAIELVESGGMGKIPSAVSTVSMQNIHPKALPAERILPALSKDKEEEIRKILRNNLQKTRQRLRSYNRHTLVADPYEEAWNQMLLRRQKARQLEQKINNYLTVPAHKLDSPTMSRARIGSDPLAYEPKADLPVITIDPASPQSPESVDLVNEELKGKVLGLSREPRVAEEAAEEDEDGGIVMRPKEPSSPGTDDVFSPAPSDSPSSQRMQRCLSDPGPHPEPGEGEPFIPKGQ

- solubility under assay conditions [1]: insoluble under assay conditions
- IC50 ([2]; Mus musculus, Peritoneal macrophage, LPS-stimulated murine macrophages, read-out: IC50 of IL-6 synthesis/secretion): 32.1 µM
- IC50 (NHE-1): 0.0058 µM
Structure (SMILES): Cn1c(=O)n(Cc2nnc(N)[nH]2)c(=O)c2ccccc21 [Compound 3e, 3-[(5-Amino-4H-1,2,4-triazol-3-yl)methyl]-1-methylquinazoline-2,4(1H,3H)-dione]
- selectivity ratio (IL-6 secretion): 4 to 6
- secretion of interleukin 6 ([2]; LPS-stimulated macrophages, screening (Fig. 4)): suppressed
